{"source": "the NIST ThermoML archive (doi:10.1016/j.tca.2014.09.007)", "key": {"[1]": {"assay": "Molar enthalpy of transition or fusion", "details": "Crystal; DSC"}, "[2]": {"details": "DTA"}}, "note": "Numbers after ± are expanded uncertainties."}
{"smiles": "CC(C)(Sc1cc(C(C)(C)C)c(O)c(C(C)(C)C)c1)Sc1cc(C(C)(C)C)c(O)c(C(C)(C)C)c1", "note": "[probucol]", "values": [{"measurement": "Molar enthalpy of transition or fusion", "setting": "[1]", "result": "32 ± 0.93", "unit": "kJ/mol"}, {"measurement": "Normal melting temperature", "setting": "[2]; Crystal", "result": "125.90 ± 0.5", "unit": "°C"}, {"measurement": "Glass transition temperature", "setting": "[2]; Glass", "result": "25.00 ± 4", "unit": "°C"}]}
